Experimental data: the SangsterLogP compilation

| logP | SMILES |
| --- | --- |
| 3.64 | COc1nc(C(Cl)(Cl)Cl)nc(C(Cl)(Cl)Cl)n1 |
| 3.41 | Cc1nc(Nc2ccccc2)nc(C(Cl)(Cl)Cl)n1 |
| 4.09 | CCCNc1nc(C(Cl)(Cl)Cl)nc(C(Cl)(Cl)Cl)n1 |
| 2.39 | CNc1nc(C)nc(C(Cl)(Cl)Cl)n1 |
| 4.93 | ClC(Cl)(Cl)c1nc(NCc2ccccc2)nc(C(Cl)(Cl)Cl)n1 |
| 3.86 | Cc1nc(NCc2ccccc2)nc(C(Cl)(Cl)Cl)n1 |
| 4.94 | CN(C)c1nc(C(Cl)(Cl)Cl)nc(C(Cl)(Cl)Cl)n1 |
| 4.42 | CSc1nc(C(Cl)(Cl)Cl)nc(C(Cl)(Cl)Cl)n1 |
| 2.39 | COc1nc(N)nc(C(Cl)(Cl)Cl)n1 |
| 3.23 | CNc1nc(C(Cl)(Cl)Cl)nc(C(Cl)(Cl)Cl)n1 |
| 3.29 | CCCNc1nc(C)nc(C(Cl)(Cl)Cl)n1 |
| 3.12 | CSc1nc(N)nc(C(Cl)(Cl)Cl)n1 |
| 2.48 | Nc1nc(C(Cl)(Cl)Cl)nc(C(Cl)(Cl)Cl)n1 |
| 3.78 | Cc1nc(N(C)C)nc(C(Cl)(Cl)Cl)n1 |
| 4.39 | ClC(Cl)(Cl)c1nc(Nc2ccccc2)nc(C(Cl)(Cl)Cl)n1 |
| 4.1 | Cc1nc(C(Cl)(Cl)Cl)nc(C(Cl)(Cl)Cl)n1 |
| 3.81 | O=C1OC(=Nc2ccc(Cl)cc2)C2=C1CCCC2 |

| SMILES | logP |
| --- | --- |
| Cc1nc(N)nc(C(Cl)(Cl)Cl)n1 | 1.77 |
| ClC(Cl)(Cl)c1nc(C(Cl)(Cl)Cl)nc(C(Cl)(Cl)Cl)n1 | 3.75 |
| Nc1nc(N)nc(C(Cl)(Cl)Cl)n1 | 1.24 |
| O=C1C2=C(CCCC2)C(=O)N1c1ccc(Cl)cc1 | 3.26 |
